From patent US7868026B2, “Therapeutic compounds” (Pfizer Inc., priority 2005, dated 2011)
Like-named read-outs stand apart in the source and are kept apart here.

What was measured:
Assay type in all cases: biochemical
CYP3A4 [1] = target: T1, CYP3A4 (Homo sapiens, UniProt P08684); experiment: Determination of IC50 against CYP3A4 by measurement of inhibition of midazolam metabolism (human liver microsomes, 1-hydroxymidazolam by LC-MS/MS); design: 0.1 mg/mL human liver microsomes; settings: 2 μM midazolam, 0.1 mg/mL human liver microsomes
How it was run: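 Human liver microsomes (0.1 mg/mL) incubated 8 min with 2 μM midazolam and 1 mM NADPH in 100 mM potassium phosphate, pH 7.4. 1-Hydroxymidazolam quantified by LC-MS/MS (MRM) as peak area ratio to internal standard against a metabolite standard curve.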

CYP3A4 [2] = target: T1, CYP3A4; experiment: Determination of IC50 against CYP3A4 by measurement of inhibition of testosterone metabolism (human liver microsomes, 6-β-OH-testosterone by LC-MS/MS); design: 0.1 mg/mL human liver microsomes; settings: read-out: IC50 (Testo.)
How it was run: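 6-β-OH-testosterone formation was read by LC-MS/MS (MRM, internal standard, standard curve) after eight minutes. Reaction contained testosterone 25 μM, NADPH 1 mM and microsomal protein 0.1 mg/mL in pH 7.4 potassium phosphate (100 mM).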

CYP3A4 [3] = target: T1, CYP3A4; experiment: Determination of compound Kiapp against recombinant CYP3A4 enzyme (BFC fluorescent substrate)
How it was run: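 Kiapp derived from initial velocities over the first 5 min of BFC (5 uM) oxidation, using Morrison's tight-binding equation for non-partial and Szedlacsek's for partial inhibitors. Inhibitor first pre-incubated ≥30 min with CYP3A4 (5.5 or 8 nM, ±b5) in pH 7.0 phosphate/TCEP/2% DMF at room temperature; 200 uM NADPH initiated.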

[4] = Baculo. enzyme preparation, read-out: Kiapp (BFC, Baculo.)
[5] = Super. enzyme preparation, read-out: Kiapp (BFC, Super.)

T1 sequence (P08684 whole entry): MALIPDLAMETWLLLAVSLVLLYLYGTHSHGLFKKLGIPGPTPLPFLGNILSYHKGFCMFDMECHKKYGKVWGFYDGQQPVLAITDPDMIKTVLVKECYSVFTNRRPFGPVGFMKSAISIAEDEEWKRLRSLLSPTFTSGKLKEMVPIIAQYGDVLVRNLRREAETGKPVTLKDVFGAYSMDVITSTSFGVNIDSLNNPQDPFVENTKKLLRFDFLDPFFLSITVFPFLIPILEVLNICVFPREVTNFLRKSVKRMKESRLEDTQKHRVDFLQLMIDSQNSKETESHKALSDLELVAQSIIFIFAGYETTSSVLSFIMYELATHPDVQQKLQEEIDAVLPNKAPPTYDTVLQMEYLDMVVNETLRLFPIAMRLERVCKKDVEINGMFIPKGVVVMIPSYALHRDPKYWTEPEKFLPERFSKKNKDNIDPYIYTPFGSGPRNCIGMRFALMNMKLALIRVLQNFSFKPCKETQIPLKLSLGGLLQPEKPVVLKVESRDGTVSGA

| IC50 (CYP3A4 [1]) [nM] | IC50 (CYP3A4 [2]) [nM] | Ki (CYP3A4 [3]; [4]) [nM] | Ki (CYP3A4 [3]; [5]) [nM] | Structure (SMILES) |
| --- | --- | --- | --- | --- |
| > 750 | > 750 | > 1000 | > 1000 | O=C(c1ccccc1S(=O)(=O)Nc1cccnc1)N1CC2(CCNCC2)C1 [Example 7, 2-(2,7-diazaspiro[3.5]non-2-ylcarbonyl)-N-pyridin-3-ylbenzenesulfonamide] |
| 256 | 627 | > 1000 | 453 | COCCNC(=O)c1ccccc1S(=O)(=O)Nc1cccnc1 [Example 261, N-(2-methoxyethyl)-2-[(pyridin-3-ylamino)sulfonyl]benzamide] |
| > 750 | > 750 | 901 | 570 | CC(C)(CN1CCCCC1)NC(=O)c1ccccc1S(=O)(=O)Nc1cccnc1 [Example 2, N-(1,1-dimethyl-2 piperidin-1-ylethyl)-2-[(pyridin-3-ylamino)sulfonyl]benzamide] |
| 557 | 285 | > 1000 | 427 | COCCN(C)C(=O)c1ccccc1S(=O)(=O)Nc1cnccc1C [Example 170, N-(2-methoxyethyl)-N-methyl-2-{[(4-methylpyridin-3-yl)amino]sulfonyl}benzamide] |
| 16 | 40 | 274 | 41.4 | COc1ccc(CNC(=O)c2ccccc2S(=O)(=O)Nc2cncc(C)c2)cc1 [Example 361, N-(4-methoxybenzyl)-2-{[(5-methylpyridin-3-yl)amino]sulfonyl}benzamide] |
| 11 | 9 | 173 | 4 | O=C(NCc1ccc(F)cc1)c1ccccc1S(=O)(=O)Nc1cccnc1 [Example 9, N-(4-fluorobenzyl)-2-[(pyridin-3-ylamino)sulfonyl]benzamide] |
| 47 | 65 | 485 | 71.5 | CCCCNC(=O)c1ccccc1S(=O)(=O)Nc1cnccc1C [Example 260, N-butyl-2-{[(4-methylpyridin-3-yl)amino]sulfonyl}benzamide] |
| < 3 | 8 | 20.3 | 6 | COc1cncc(NS(=O)(=O)c2ccccc2C(=O)NCc2ccc(F)cc2F)c1 [Example 212, N-(2,4-difluorobenzyl)-2-{[(5-methoxypyridin-3-yl)amino]sulfonyl}benzamide] |
| 63 | 64 | 181 | 44.9 | CN(Cc1ccccc1)C(=O)c1ccccc1S(=O)(=O)N(C)c1cccnc1 [Example 355, N-benzyl-N-methyl-2-{[methyl(pyridin-3-yl)amino]sulfonyl}benzamide] |
| 23 | < 3 | 174 | 4.8 | Cc1ccccc1CNC(=O)c1ccccc1S(=O)(=O)Nc1cccnc1 [Example 74, N-(2-methylbenzyl)-2-[(pyridin-3-ylamino)sulfonyl]benzamide] |
| 42 | 231 | 184 | 42 | COc1cncc(NS(=O)(=O)c2ccc(Cl)cc2C(=O)NCCC(C)C)c1 [Example 295, 5-chloro-2-{[(5-methoxypyridin-3-yl)amino]sulfonyl}-N-(3-methylbutyl)benzamide] |
| 25 | 43 | 80.8 | 21.8 | CCCCCNC(=O)c1ccccc1S(=O)(=O)Nc1cncc(C)c1 [Example 360, 2-{[(5-methylpyridin-3-yl)amino]sulfonyl}-N-pentylbenzamide] |
| 5 | 7.5 | 10.2 | 1.63 | COc1cncc(NS(=O)(=O)c2ccccc2C(=O)NCc2ccc(F)c(Cl)c2)c1 [Example 262, N-(3-chloro-4-fluorobenzyl)-2-{[(5-methoxypyridin-3-yl)amino]sulfonyl}benzamide] |
| 12 | 21 | 208 | 12.3 | COc1cncc(NS(=O)(=O)c2ccccc2C(=O)NC2CCC(C)CC2)c1 (centres unmarked) [Example 149, 2-{[(5-methoxypyridin-3-yl)amino]sulfonyl}-N-(4-methylcyclohexyl)benzamide] |
| 4 | 5 | 18.2 | 6.1 | COc1cncc(NS(=O)(=O)c2ccccc2C(=O)NCCC2CCCC2)c1 [Example 209, N-(2-cyclopentylethyl)-2-{[(5-methoxypyridin-3-yl)amino]sulfonyl}benzamide] |
| 21 | 29 | 215 | 60.7 | COc1cncc(NS(=O)(=O)c2ccccc2C(=O)NCC(C)(C)C)c1 [Example 380, N-(2,2-dimethylpropyl)-2-{[(5-methoxypyridin-3-yl)amino]sulfonyl}benzamide] |

| IC50 (CYP3A4 [1]) [nM] | IC50 (CYP3A4 [2]) [nM] | Ki (CYP3A4 [3]; [4]) [nM] | Ki (CYP3A4 [3]; [5]) [nM] | Structure (SMILES) |
| --- | --- | --- | --- | --- |
| 24 | 49 | 613 | – | COc1ccc(CNC(=O)c2ccccc2S(=O)(=O)Nc2cccnc2)c(OC)c1 [Example 53, N-(2,4-dimethoxybenzyl)-2-[(pyridin-3-ylamino)sulfonyl]benzamide] |
| 16 | 37 | 203 | 24.3 | Cc1cncc(NS(=O)(=O)c2ccccc2C(=O)NCCOc2ccccc2)c1 [Example 229, 2-{[(5-methylpyridin-3-yl)amino]sulfonyl}-N-(2-phenoxyethyl)benzamide] |
| 28 | 16 | 120 | 12.2 | COc1cncc(NS(=O)(=O)c2ccccc2C(=O)NCc2cc(Cl)ccc2F)c1 [Example 151, N-(5-chloro-2-fluorobenzyl)-2-{[(5-methoxypyridin-3-yl)amino]sulfonyl}benzamide] |
| 44 | 34 | 173 | 21.7 | Cc1ccncc1NS(=O)(=O)c1ccccc1C(=O)N(C)Cc1ccc(F)c(F)c1 [Example 172, N-(3,4-difluorobenzyl)-N-methyl-2-{[(4-methylpyridin-3-yl)amino]sulfonyl}benzamide] |
| 10 | 36 | 313 | 25.2 | COc1ccccc1CNC(=O)c1ccccc1S(=O)(=O)Nc1cccnc1 [Example 90, N-(2-methoxybenzyl)-2-[(pyridin-3-ylamino)sulfonyl]benzamide] |
| 71 | 134 | 563 | 62.9 | COc1ccncc1NS(=O)(=O)c1ccccc1C(=O)NC(C)C1CC1 (centres unmarked) [Example 276, N-(1-cyclopropylethyl)-2-{[(4-methoxypyridin-3-yl)amino]sulfonyl}benzamide] |
| 10 | 12 | 8.6 | 5.31 | CCOc1ccncc1NS(=O)(=O)c1ccccc1C(=O)N(C)Cc1ccc(F)c(F)c1 [Example 251, N-(3,4-difluorobenzyl)-2-{[(4-ethoxypyridin-3-yl)amino]sulfonyl}-N-methylbenzamide] |
| 6 | 11 | 50.9 | 6.49 | COc1cncc(NS(=O)(=O)c2ccccc2C(=O)NCCc2ccccc2F)c1 [Example 258, N-[2-(2-fluorophenyl)ethyl]-2-{[(5-methoxypyridin-3-yl)amino]sulfonyl}benzamide] |
| 379 | 445 | > 1000 | – | O=C(c1ccccc1S(=O)(=O)Nc1cccnc1)N1CCCC1 [Example 20, N-pyridin-3-yl-2-(pyrrolidin-1-ylcarbonyl)benzenesulfonamide] |
| 52 | 96 | 167 | 43.6 | CC(C)(NC(=O)c1ccccc1S(=O)(=O)Nc1cccnc1)C1CC1 [Example 4, N-(1-cyclopropyl-1-methylethyl)-2-[(pyridin-3-ylamino)sulfonyl]benzamide] |
| 19 | 55 | 197 | 48.7 | COc1cncc(NS(=O)(=O)c2ccccc2C(=O)NC(C)C(C)C)c1 (centres unmarked) [Example 313, N-(1,2-dimethylpropyl)-2-{[(5-methoxypyridin-3-yl)amino]sulfonyl}benzamide] |
| 25 | 71 | 206 | 4.1 | Cc1cccc(CNC(=O)c2ccccc2S(=O)(=O)Nc2cccnc2)c1 [Example 80, N-(3-methylbenzyl)-2-[(pyridin-3-ylamino)sulfonyl]benzamide] |
| 7 | 9 | 22.7 | 4.06 | COc1ccncc1NS(=O)(=O)c1ccccc1C(=O)NCc1ccc(F)c(C(F)(F)F)c1 [Example 255, N-[4-fluoro-3-(trifluoromethyl)benzyl]-2-{[(4-methoxypyridin-3-yl)amino]sulfonyl}benzamide] |
| 170 | > 750 | 444 | 110 | CCOc1cncc(NS(=O)(=O)c2ccccc2C(=O)N2CCCC2)c1 [Example 297, N-(5-ethoxypyridin-3-yl)-2-(pyrrolidin-1-ylcarbonyl)benzenesulfonamide] |
| 5 | 11 | 22.6 | 2 | COc1cncc(NS(=O)(=O)c2ccccc2C(=O)NCc2ccc(F)cc2Cl)c1 [Example 183, N-(2-chloro-4-fluorobenzyl)-2-{[(5-methoxypyridin-3-yl)amino]sulfonyl}benzamide] |
